Results taken from US20100297673A1, “METHODS AND COMPOSITIONS FOR UPREGULATION OF PEROXIREDOXIN ACTIVITY” (Reddy US Therapeutics, priority 2006, published 2010).

Legend:
MCP-1 = MCP-1 ELISA in TNFα-induced endothelial cells; type: cell-based; conditions: Homo sapiens, Endothelial cell, 0.5 ng/ml TNFα, overnight, read-out: inhibition of MCP-1 levels
Protocol: MCP-1 ELISA is carried out using Quantikine Human MCP-1 kit as described by manufacturer (R&D Systems, Minneapolis, Minn., Catalog #DY279E). Mouse anti-human MCP-1 was used as the capture antibody and HRP-conjugated goat anti-human MCP-1 (Zymed (now part of Invitrogen) catalog #81-1620, Carlsbad, Calif.) was used as the detection antibody. Culture media were incubated with capture antibody (in 96 well) for 2 hours at room temperature. Wells were washed three times with wash buffer (0.05% tween-20 in phosphate buffered saline (PBS) pH 7.4) followed by incubation with detection antibody for 2 hours at room temperature. Color development was read at 450 nm in a Microplate reader.
TNF-alpha (TNFα) (R&D Systems, Minneapolis, Minn., Catalogue No. 210-TA-010) is a pro-inflammatory cytokine implicated in the development of cardiovascular disease. Inflammatory markers produced in response to TNFα include monocyte chemoattractant protein—MCP-1, and vascular cell adhesion molecule—VCAM-1. […] To determine whether compound mediating the activation of Peroxiredoxin will result in decreased inflammation, MCP-1 and VCAM-1 levels were measured in TNFα-induced endothelial cells. […] After fixing the cells, VCAM-1 expression was detected with the primary and secondary antibodies. Colorimetric measurements with made with the Multiskan Ascent plate reader.

Peroxiredoxin = Peroxiredoxin activity assay (NADPH oxidation coupled to H2O2 reduction); type: biochemical; conditions: addition to liver cells (FIG. 3); assay method states 500 nM compound A
Protocol: An in vitro assay was developed to identify compounds that activated Peroxiredoxin (Peroxiredoxin inducers). In a 96-well plate, Peroxiredoxin (0.1 μg) was incubated with 5 μM of an unknown candidate compound and mixed with Hepes buffer containing NADPH, thioredoxin, thioredoxin reductase and hydrogen peroxide. When hydrogen peroxide was reduced by the activated Peroxiredoxin, the quantitative indicator, NADPH was converted to NADP. A decrease in NADPH was monitored by determining the absorption at […]. A decrease in NADPH was therefore, indicative of a Peroxiredoxin inducer.
Peroxiredoxin-mediated reduction of H2O2 was coupled to oxidation of NADPH oxidation. NADPH oxidation was monitored as a decrease in absorbance at 340 nm (A340). The control reaction contained 50 mM Hepes-NaOH (pH 7.0), 1 mM EDTA, 2 μM thioredoxin, 150 nM thioredoxin reductase, H2O2 (8.8 mM), NADPH ([…]), and Peroxiredoxin (1 μM). The treatment group in addition contained 500 nM of compound A. The reaction was incubated for 30 seconds to 10 minutes and the change in absorbance was monitored.

VCAM-1 = VCAM-1 ELISA in TNFα-induced endothelial cells; type: cell-based; conditions: Homo sapiens, Endothelial cell, 0.5 ng/ml TNFα, overnight, read-out: inhibition of VCAM-1 levels
Protocol: Endothelial cell surface VCAM-1 was measured following compound A treatments. The cell layer was washed once with PBS and fixed with methanol. After fixing the cells, VCAM-1 expression was detected with the primary VCAM-1 antibody (goat-anti-Human VCAM-1 antibody—catalog# BBA19, R&D Systems) and secondary anti-goat antibody conjugated to horse radish peroxidase. Colorimetric measurements with made with the Multiskan Ascent plate reader.
TNF-alpha (TNFα) (R&D Systems, Minneapolis, Minn., Catalogue No. 210-TA-010) is a pro-inflammatory cytokine implicated in the development of cardiovascular disease. Inflammatory markers produced in response to TNFα include monocyte chemoattractant protein—MCP-1, and vascular cell adhesion molecule—VCAM-1. Endothelial cells are known to produce these markers in response TNFα. To determine whether compound mediating the activation of Peroxiredoxin will result in decreased inflammation, MCP-1 and VCAM-1 levels were measured in TNFα-induced endothelial cells. Cells were stimulated with 0.5 ng/ml of TNFα with or without compound A in basal media supplemented with 1% FBS. Each treatment condition was done in triplicate. […] After fixing the cells, VCAM-1 expression was detected with the primary and secondary antibodies. Colorimetric measurements with made with the Multiskan Ascent plate reader.

[1] = system: Human Aortic Smooth Muscle cells; assay: Cellular peroxide levels (Amplex Red Kit); type: cell-based; conditions: 3 uM compound, 30 min pre-incubation then 1 hour in growth media, cell lysates
Protocol: H2O2 levels in human aortic smooth muscle cells (Rockland, Me. Clonetics, catalog #CC-2535) were measured using Amplex Red Kit (Molecular Probes). Smooth muscle cells were cultured in Clonetics growth media containing 5% fetal bovine serum. Cells at 70 percent confluence were starved overnight in serum free media and incubated for further 30 min in serum free media alone (control) or medium containing […] compound A (treatment) for 30 minutes. Growth media containing serum was then added and incubated for one hour. The cells were then lysed and H2O2 was assayed in lysates using Amplex Red Kit (Molecular Probes).
To establish that compound mediated activation of Peroxiredoxin will result in decreased H2O2, H2O2 levels were measured in untreated (control) and compound A treated smooth muscle cells (See FIG. 16). Human Aortic Smooth Muscle cells at 70 percent confluence were starved overnight in basal media and incubated for further 30 min in basal medium alone (control) or medium containing 3 uM compound (treatment) for 30 minutes. Growth media was then added to the control sample and growth media plus compound was added to the treatment group and incubated for one hour. The cells were then lysed and H2O2 was assayed in lysates using Amplex Red Kit (Molecular Probes).

TNF-α = assay: LPS-induced acute inflammation in rats, serum TNF-α ELISA; type: in vivo, Sprague Dawley rats; conditions: 60 mg/kg oral, LPS 1 mg/kg i.p., serum 1 hour after LPS
Protocol: The compound A was orally administrated (60 mg/kg) to female Sprague Dawley rats followed by intraperitoneal administration lipopolysaccharide (LPS−1 mg/kg). Blood samples were collected 1 hour after LPS administration. TNF-α level in the serum was analyzed by using ELISA.

LDL-receptor null mice = assay: Hyperlipidemia model, LDL-receptor null mice on cholesterol diet; type: in vivo; conditions: 100 mg/kg oral once a day, 15 days, plasma, vs vehicle
Protocol: First, 14 week old LDL-receptor null mice were fed with a diet containing 0.8% cholesterol, 0.1% cholic acid and 20% coconut oil and once a day orally dosed with carboxymethyl cellulose suspension alone Compound A at 100 mg/kg (in carboxymethyl cellulose suspension) for 15 days. At the end of the study, plasma levels of cholesterol and triglycerides were determined using an enzymatic method (INFINITY™ Sigma Diagnostics).

[2] = system: apolipoprotein E-null mice; assay: Hyperlipidemia model, apolipoprotein E-null mice; type: in vivo; conditions: 100 mg/kg oral once a day, 14 days, plasma, vs vehicle
Protocol: Second, 8 week old apolipoprotein E-null mice were fed with normal chow diet and once a day orally dosed with carboxymethyl cellulose suspension alone or Compound A at 100 mg/kg (in carboxymethyl cellulose suspension) for 14 days. At the end of the study, plasma levels of cholesterol and triglycerides were determined.

Stat1 = Stat1 activity assay (Stat1-luciferase reporter); type: cell-based, human; conditions: HepG2 transfected with Stat1-luciferase
Protocol: HepG2 cells were prepared from the T-75 flasks and were used to seed the 24-well plates with 7.6×10^4 cells per well per 0.5 ml of DMEM+10% FBS. The next day, Stat1-lucuferase transfections were set up with Fugene6 according to the manufacturer's directions. In brief, transfection mixtures were prepared in DMEM in separate tubes from the reporter constructs also in DMEM. The samples incubated for 5 minutes at room temperature. Then, the constructs were mixed with the Fugene6 and incubated again for 30 minutes at room temperature. Then 50 μl transfection mix was added to each well in the existing media. Cells were allowed to incubate over night. In selected experiments, cells were treated with 100 uM H2O2 as well as with siPRDX1. After treatment, cells were lysed with the Promega lysis buffer. The wells were scraped and lysates were transferred into pre-chilled tubes and the lysates were cleared via centrifugation. 20 μl of cleared lysate was added to wells in 96 well clear plates and 100 μl of luciferase assay buffer was added to wells. Relative light units were counted using the PerkinElmer Envision.
HepG2 were transiently transfected with a Stat1-luciferase reporter construct and subject to treatment with either H2O2 or siPeroxiredoxin 1. Bars show the mean±SD. Asterisks indicate statistical difference from the Mock group with significance values of p<0.05. […]

HepG2 cells [3] = assay: Real time-PCR gene expression in HepG2 cells; type: cell-based, human
Protocol: HepG2 cells were prepared from the T-75 flasks and were used to seed the 24-well plates with 1.6×10^5 cells per well per 1 ml of growth media. The next day, the media was removed and 1 ml of low-serum growth media was added to each well for 24 hours. The following day, the low-serum media was removed. In selected experiments, cells were treated with 100 uM H2O2 or si-Peroxiredoxin I. Media was removed and cells were lysed with the lysis buffer from the Ambion RNAqueous kit and plate was placed on ice. RNA was extracted using the kit according to the protocol. The RNA was quantitated using a spectrophotometer and frozen at −80° C. The next day, the RNA was used for real-time PCR. The RNA was thawed and master mixes for each primer were prepared with the Stratagene Full Velocity SYBR Green QRT-PCR Master Mix. Master Mix with primer was added to the appropriate wells then RNA was added to appropriate wells. […]
HepG2 cells were grown in T-75 flasks prior to study. […] Total cholesterol and apoB levels were measured using an enzymatic assay. Percentage change was evaluated by comparing to both the baseline and the vehicle at the end of the study. […] RNA was isolated according to the manufacturer's protocol (Qiagen) and analyzed for changes in gene expression normalized to actin using RT-PCR. […]

HepG2 cells [4] = assay: Dil-LDL uptake assay in HepG2 cells; type: cell-based, human
Protocol: Glass cover slips were autoclaved and aseptically transferred to 6-well tissue culture plates in a tissue culture hood. HepG2 cells were prepared from the T-75 flasks and were used to seed the 6-well plates (containing sterile cover slips) with 7.5×10^5 cells per well per 1 ml of growth media. The following day, the media was removed and the wells were washed 3 times with 2 mL DMEM+10% DLCS very gently. After washes, 2 ml of DMEM+10% (DLCS) was added to the wells and treatments continued for 24 hours. In selected experiments, cells were treated with 100 uM H2O2, control IgG or perlecan antibodies. The next day, the media was not changed and Dil LDL and DAPI were added to wells for uptake (5 hours). After the uptake was completed, the wells were washed gently 3 times with PBS (2 mL/well/wash) and after last wash, cells were fixed with 1 mL of 4% formaldehyde in PBS for 20 minutes. Wells were washed 5 times with water in excess. Cover slips were then mounted to slides using clearmount. Slides were stored at −20° C. The slides were imaged using the Nikon microscope and ColdSNAP-Pro camera. […] Images were quantitated using Image Pro-Plus software. The intensity per area of the fluorescent label was quantitated using the software and was used to generate the figure which is LDL uptake per area as a percent of the control.

[5] = in vivo; cited from earlier work

COc1ccc(Nc2nc(NC3CCCCCC3)nc(N3CCC(OC(=O)CCC(=O)O)CC3)n2)cc1Cl [Compound A]
inhibition at 2.5 µM (MCP-1): 75%
increase in Peroxiredoxin activity over controls (Peroxiredoxin): 48%
inhibition at 2.5 µM (VCAM-1): 75%
decrease in H2O2 levels vs untreated control [1]: approximately 77%
inhibition of LPS-induced TNFα elevation (TNF-α): completely inhibited
serum TNFα level (TNF-α): undetectable
LDL cholesterol (LDL-receptor null mice): reduction
VLDL cholesterol (LDL-receptor null mice): reduction
total cholesterol (LDL-receptor null mice): reduction
triglycerides (LDL-receptor null mice): reduction
total triglycerides [2]: reduction

OO [Compound H2O2, hydrogen peroxide]
Stat1 driven luciferase expression (Stat1): significantly enhanced
LDLr mRNA levels (HepG2 cells [3]): did not have a significant effect
perlecan expression levels (HepG2 cells [3]): significantly reduced
LDL uptake by liver cells (HepG2 cells [4]): significantly decreased

O=C1[C@H](CC[C@H](O)c2ccc(F)cc2)[C@@H](c2ccc(O)cc2)N1c1ccc(F)cc1 [Ezetimibe]
cholesterol lowering [5]: 15-18%
